Experiment [1] has as its target Human GPR35 (Homo sapiens, UniProt Q9HC97). As to the kind of experiment: Beta-Arrestin Assay (Tango U2OS cells, LiveBLAzer-FRET B/G). It counts as cell-based. To be noted: Human GPR35 expressing Tango U2OS cells, 5 hours treatment. The protocol:
Human GPR35 expressing Tango U2OS cells were plated in 384-well format in clear bottom plates at a cell density of 10,000 cells/well and allowed to grow overnight. The next day, cells were treated with serially diluted test compounds for 5 hours. LiveBLAzer-FRET B/G (CCF4-AM) detection reagents were then added and cells were allowed to incubate for 2 hours before reading plates on a BioTek Cytation 5 plate reader. Zaprinast was used as a positive control for dose-response curves. In order to determine EC50 values, data were fit to a four-parameter dose-response curve.

The target in experiment [2] is Human GPR35 (Homo sapiens, UniProt Q9HC97, S294R). Put plainly: Alternative Beta-Arrestin Assay (JumpIn 294R Tango U2OS cells, LiveBLAzer-FRET B/G). It counts as cell-based. To be noted: for pEC50: Human GPR35 expressing JumpIn 294R Tango U2OS cells, 5 hours treatment. The method, boiled down:
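U2OS Tango cells expressing human GPR35 S294R, plated overnight, exposed to serially diluted compounds for 5 hours. β-lactamase reporter read with LiveBLAzer-FRET B/G (CCF4-AM) after 2 h; EC50 from four-parameter fit, zaprinast as positive control.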

The source of these data is patent US11053251B2, “GPR35 modulators” (Prometheus Biosciences, Inc., priority 2019, dated 2021).

pEC50: −log10 of the molar value. Bounds are passed on as bounds.

Chain of Human GPR35 (Homo sapiens, UniProt Q9HC97) (Q9HC97 whole entry): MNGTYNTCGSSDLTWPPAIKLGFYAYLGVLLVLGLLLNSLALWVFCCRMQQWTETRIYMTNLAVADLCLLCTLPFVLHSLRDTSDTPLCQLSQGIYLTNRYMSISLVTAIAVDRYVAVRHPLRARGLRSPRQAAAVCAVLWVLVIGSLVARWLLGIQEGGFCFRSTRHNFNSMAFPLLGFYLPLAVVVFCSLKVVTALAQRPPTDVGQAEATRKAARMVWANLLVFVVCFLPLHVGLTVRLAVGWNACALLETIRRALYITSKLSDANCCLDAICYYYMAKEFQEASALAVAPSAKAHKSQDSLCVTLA
Chain of Human GPR35 (Homo sapiens, UniProt Q9HC97, S294R) (Q9HC97 whole entry S294R): as the sequence (Q9HC97 whole entry) above, with S294R counted along it

For orientation: pEC50 means the EC50 on a negative log10 scale, so that one unit is a factor of ten. Read a high pEC50 as a low EC50. Consider `CCOc1cc(-c2cccc(C(=O)O)c2)ccc1-c1nc2[nH]nnc2c(=O)[nH]1` [Compound 110, 3′-Ethoxy-4′-(7-oxo-6,7-dihydro-3H-[1,2,3]triazolo[4,5-d]pyrimidin-5-yl)-[1,1′-biphenyl]-3-carboxylic acid], for which the pEC50 on Human GPR35 [1] and on Human GPR35 [2] was at least 5.00 throughout.
Consider `CCOc1cc(-c2ccc(C(=O)O)cc2)ccc1-c1nc2[nH]nnc2c(=O)[nH]1` [Compound 111, 3′-Ethoxy-4′-(7-oxo-6,7-dihydro-3H-[1,2,3]triazolo[4,5-d]pyrimidin-5-yl)-[1,1′-biphenyl]-4-carboxylic acid], for which the pEC50 on Human GPR35 [1] and at Human GPR35 [2] was at least 5.00 throughout.
For the compound `CCOc1cc(-c2cncc(C(=O)OC)c2)ccc1-c1nc2[nH]nnc2c(=O)[nH]1` [Compound 112, Methyl 5-(3-ethoxy-4-(7-oxo-6,7-dihydro-3H-[1,2,3]triazolo[4,5-d]pyrimidin-5-yl)phenyl)nicotinate], the pEC50 at Human GPR35 [1] and at Human GPR35 [2] was at least 5.00 in each case.
Regarding `CCOc1cc(-c2cncc(C(=O)O)c2)ccc1-c1nc2[nH]nnc2c(=O)[nH]1` [Compound 113, 5-(3-Ethoxy-4-(7-oxo-6,7-dihydro-3H-[1,2,3]triazolo[4,5-d]pyrimidin-5-yl)phenyl)nicotinic acid], the negative logarithm of the EC50 (pEC50) at Human GPR35 [1] and on Human GPR35 [2] was at least 5.00 each time.
For `CCOc1cc(-c2ccc(CC(=O)OC)cc2)ccc1-c1nc2[nH]nnc2c(=O)[nH]1` [Compound 114, Methyl 2-(3′-ethoxy-4′-(7-oxo-6,7-dihydro-3H-[1,2,3]triazolo[4,5-d]pyrimidin-5-yl)-[1,1′-biphenyl]-4-yl)acetate], the negative logarithm of the EC50 (pEC50) on Human GPR35 [1] and on Human GPR35 [2] was at least 5.00 throughout.
As for `CCOc1cc(-c2ccc(CC(=O)O)cc2)ccc1-c1nc2[nH]nnc2c(=O)[nH]1` [Compound 115, 2-(3′-Ethoxy-4′-(7-oxo-6,7-dihydro-3H-[1,2,3]triazolo[4,5-d]pyrimidin-5-yl)-[1,1′-biphenyl]-4-yl)acetic acid], the pEC50 on Human GPR35 [1] and at Human GPR35 [2] was at least 5.00 each time.
Take `CCOc1cc(-c2ccc(C(=O)OC)s2)ccc1-c1nc2[nH]nnc2c(=O)[nH]1` [Compound 116, Methyl 5-(3-ethoxy-4-(7-oxo-6,7-dihydro-3H-[1,2,3]triazolo[4,5-d]pyrimidin-5-yl)phenyl)thiophene-2-carboxylate]: the pEC50 on Human GPR35 [1] and at Human GPR35 [2] was at least 5.00 in each case.
As for `CCOc1cc(-c2ccc(C(=O)O)s2)ccc1-c1nc2[nH]nnc2c(=O)[nH]1` [Compound 117, 5-(3-Ethoxy-4-(7-oxo-6,7-dihydro-3H-[1,2,3]triazolo[4,5-d]pyrimidin-5-yl)phenyl)thiophene-2-carboxylic acid], the negative-log EC50 (pEC50) on Human GPR35 [1] and at Human GPR35 [2] was at least 5.00 throughout.
As to `CCOc1cc(-c2ccccc2CC(=O)OC)ccc1-c1nc2[nH]nnc2c(=O)[nH]1` [Compound 118, Methyl 2-(3′-ethoxy-4′-(7-oxo-6,7-dihydro-3H-[1,2,3]triazolo[4,5-d]pyrimidin-5-yl)-[1,1′-biphenyl]-2-yl)acetate], the pEC50 on Human GPR35 [1] and on Human GPR35 [2] was at least 5.00 in each case.
`CCOc1cc(-c2ccccc2CC(=O)O)ccc1-c1nc2[nH]nnc2c(=O)[nH]1` [Compound 119, 2-(3′-Ethoxy-4′-(7-oxo-6,7-dihydro-3H-[1,2,3]triazolo[4,5-d]pyrimidin-5-yl)-[1,1′-biphenyl]-2-yl)acetic acid]: the pEC50 at Human GPR35 [1] and on Human GPR35 [2] was at least 5.00 throughout.
Take `CCOc1cc(-c2cccc(OCC(=O)O)c2)ccc1-c1nc2[nH]nnc2c(=O)[nH]1` [Compound 121, 2-((3′-Ethoxy-4′-(7-oxo-6,7-dihydro-3H-[1,2,3]triazolo[4,5-d]pyrimidin-5-yl)-[1,1′-biphenyl]-3-yl)oxy)acetic acid]: the negative logarithm of the EC50 (pEC50) on Human GPR35 [1] and at Human GPR35 [2] was at least 5.00 throughout.
Regarding `CCOc1cc(-c2cc(N)cc(C(=O)OC)c2)ccc1-c1nc2[nH]nnc2c(=O)[nH]1` [Compound 122, Methyl 5-amino-3′-ethoxy-4′-(7-oxo-6,7-dihydro-3H-[1,2,3]triazolo[4,5-d]pyrimidin-5-yl)-[1,1′-biphenyl]-3-carboxylate], the negative logarithm of the EC50 (pEC50) at Human GPR35 [1] and at Human GPR35 [2] was at least 5.00 throughout.
For the compound `CCOc1cc(-c2cc(N)cc(C(=O)O)c2)ccc1-c1nc2[nH]nnc2c(=O)[nH]1` [Compound 123, 5-amino-3′-ethoxy-4′-(7-oxo-6,7-dihydro-3H-[1,2,3]triazolo[4,5-d]pyrimidin-5-yl)-[1,1′-biphenyl]-3-carboxylic acid], the pEC50 at Human GPR35 [1] and on Human GPR35 [2] was at least 5.00 each time.
`CCOc1cc(-c2ccc(C(=O)OC)nc2)ccc1-c1nc2[nH]nnc2c(=O)[nH]1` [Compound 124, Methyl 5-(3-ethoxy-4-(7-oxo-6,7-dihydro-3H-[1,2,3]triazolo[4,5-d]pyrimidin-5-yl)phenyl)picolinate]: the pEC50 on Human GPR35 [1] and on Human GPR35 [2] was at least 5.00 throughout.
As for `CCOc1cc(-c2ccc(C(=O)O)nc2)ccc1-c1nc2[nH]nnc2c(=O)[nH]1` [Compound 125, 5-(3-Ethoxy-4-(7-oxo-6,7-dihydro-3H-[1,2,3]triazolo[4,5-d]pyrimidin-5-yl)phenyl)picolinic acid], the pEC50 at Human GPR35 [1] and on Human GPR35 [2] was at least 5.00 in each case.
On to `CCOC(=O)Cn1cc(-c2ccc(-c3nc4[nH]nnc4c(=O)[nH]3)c(OCC)c2)cn1` [Compound 126, Ethyl 2-(4-(3-ethoxy-4-(7-oxo-6,7-dihydro-3H-[1,2,3]triazolo[4,5-d]pyrimidin-5-yl)phenyl)-1H-pyrazol-1-yl)acetate], for which the negative-log EC50 (pEC50) on Human GPR35 [1] and at Human GPR35 [2] was at least 5.00 throughout.
Consider `CCOc1cc(-c2cnn(CC(=O)O)c2)ccc1-c1nc2[nH]nnc2c(=O)[nH]1` [Compound 127, 2-(4-(3-Ethoxy-4-(7-oxo-6,7-dihydro-3H-[1,2,3]triazolo[4,5-d]pyrimidin-5-yl)phenyl)-1H-pyrazol-1-yl)acetic acid], for which the pEC50 at Human GPR35 [1] and on Human GPR35 [2] was at least 5.00 throughout.
Regarding `CCCOc1cc(-c2cccc(C(=O)O)c2)ccc1-c1nc2[nH]nnc2c(=O)[nH]1` [Compound 128, 4′-(7-Oxo-6,7-dihydro-3H-[1,2,3]triazolo[4,5-d]pyrimidin-5-yl)-3′-propoxy-[1,1′-biphenyl]-3-carboxylic acid], the pEC50 at Human GPR35 [1] and at Human GPR35 [2] was at least 5.00 each time.
Turning to `O=c1[nH]c(-c2ccc(-c3ccccc3)cc2)nc2[nH]nnc12` [Compound 129, 5-([1,1′-biphenyl]-4-yl)-3,6-dihydro-7H-[1,2,3]triazolo[4,5-d]pyrimidin-7-one], the pEC50 is at least 5.00 at Human GPR35 [1] and 4.30 to 5.00 at Human GPR35 [2].
As to `CCOc1cc(C2CC2)ccc1-c1nc2[nH]nnc2c(=O)[nH]1` [Compound 130, 5-(4-cyclopropyl-2-ethoxyphenyl)-3,6-dihydro-7H-[1,2,3]triazolo[4,5-d]pyrimidin-7-one], the pEC50 on Human GPR35 [1] and at Human GPR35 [2] was at least 5.00 each time.
Consider `CCOc1cc(-c2cc[nH]n2)ccc1-c1nc2nn[nH]c2c(=O)[nH]1` [Compound 131, 5-(2-Ethoxy-4-(1H-pyrazol-3-yl)phenyl)-1,6-dihydro-7H-[1,2,3]triazolo[4,5-d]pyrimidin-7-one], for which the negative logarithm of the EC50 (pEC50) at Human GPR35 [1] and at Human GPR35 [2] was at least 5.00 in each case.
As to `CCOc1cc(C(=O)O)ccc1-c1nc2[nH]nnc2c(=O)[nH]1` [Compound 132, 3-Ethoxy-4-(7-oxo-6,7-dihydro-3H-[1,2,3]triazolo[4,5-d]pyrimidin-5-yl)benzoic acid], the pEC50 at Human GPR35 [1] and at Human GPR35 [2] was at least 5.00 each time.
As for `CCOc1cc(C(=O)N2CCCC2)ccc1-c1nc2[nH]nnc2c(=O)[nH]1` [Compound 133, 5-(2-Ethoxy-4-(pyrrolidine-1-carbonyl)phenyl)-3,6-dihydro-7H-[1,2,3]triazolo[4,5-d]pyrimidin-7-one], the pEC50 on Human GPR35 [1] is at least 5.00; at Human GPR35 [2], 4.30 to 5.00.
As to `CCOc1cc(C(=O)Nc2ccccc2)ccc1-c1nc2[nH]nnc2c(=O)[nH]1` [Compound 134, 3-Ethoxy-4-(7-oxo-6,7-dihydro-3H-[1,2,3]triazolo[4,5-d]pyrimidin-5-yl)-N-phenylbenzamide], the pEC50 at Human GPR35 [1] and at Human GPR35 [2] was at least 5.00 each time.
Consider `CCOc1cc(C(N)=O)ccc1-c1nc2[nH]nnc2c(=O)[nH]1` [Compound 135, 3-Ethoxy-4-(7-oxo-6,7-dihydro-3H-[1,2,3]triazolo[4,5-d]pyrimidin-5-yl)benzamide], for which the pEC50 at Human GPR35 [1] and on Human GPR35 [2] was at least 5.00 each time.
`CCOc1cc(C(=O)NC2CCCC2)ccc1-c1nc2nn[nH]c2c(=O)[nH]1` [Compound 136, N-Cyclopentyl-3-ethoxy-4-(7-oxo-6,7-dihydro-3H-[1,2,3]triazolo[4,5-d]pyrimidin-5-yl)benzamide]: the pEC50 at Human GPR35 [1] was at least 5.00; on Human GPR35 [2] it was 4.30 to 5.00.
On to `CCOc1cc(N)ccc1-c1nc2[nH]nnc2c(=O)[nH]1` [Compound 137, 5-(4-amino-2-ethoxyphenyl)-3,6-dihydro-7H-[1,2,3]triazolo[4,5-d]pyrimidin-7-one], for which the pEC50 at Human GPR35 [1] and at Human GPR35 [2] was at least 5.00 in each case.
As to `CCOc1cc(NC(C)=O)ccc1-c1nc2[nH]nnc2c(=O)[nH]1` [Compound 138, N-(3-ethoxy-4-(7-oxo-6,7-dihydro-3H-[1,2,3]triazolo[4,5-d]pyrimidin-5-yl)phenyl)acetamide], the figures for the pEC50 on Human GPR35 [1] and on Human GPR35 [2] were at least 5.00 and 4.30 to 5.00, respectively.
Consider `CCOc1cc(C(=O)N(C)c2ccccc2)ccc1-c1nc2[nH]nnc2c(=O)[nH]1` [Compound 139, 3-ethoxy-N-methyl-4-(7-oxo-6,7-dihydro-3H-[1,2,3]triazolo[4,5-d]pyrimidin-5-yl)-N-phenylbenzamide], for which the negative logarithm of the EC50 (pEC50) on Human GPR35 [1] was below 5.00. Also, on Human GPR35 [2] (at 50 μM, Table 2), the “% inhibition at 50 μM” value came to 35% inhibition at.
